Several values for one entry are separate records, joined by “and”; a condition that tells them apart may be missing. Identical values can stand only once.
Legend:
Experiment in all cases: MTT assay, growth inhibition by deguelin or deguelin derivatives
Type in all cases: cell-based
Conditions in all cases: 3 days; for % control: control = 1
A549 = tested on: A549
H460 = tested on: H460
H1299 = tested on: H1299
H596 = tested on: H596

COc1cc2c(cc1OC)C1C(=O)c3ccc4c(c3OC1CO2)CCC(C)(C)O4 (stereo not drawn) [Drug 11]
Average (MTT assay reading) (A549; A549, 0.01 μM): 0.7456 | MTT assay reading, replicate well (A549; A549, 0.01 μM): 0.779 and 0.766 and 0.723 and 0.736 and 0.77 and 0.75 and 0.695 | % control (A549; A549, 0.01 μM): 1.29 | Average (MTT assay reading) (A549; A549, 0.1 μM): 0.3701 | MTT assay reading, replicate well (A549; A549, 0.1 μM): 0.343 and 0.313 and 0.358 and 0.362 and 0.405 and 0.375 and 0.435 | % control (A549; A549, 0.1 μM): 0.64 | Average (MTT assay reading) (A549; A549, 0.5 μM): 0.4303 | MTT assay reading, replicate well (A549; A549, 0.5 μM): 0.355 and 0.444 and 0.514 and 0.418 and 0.47 and 0.413 and 0.398 | % control (A549; A549, 0.5 μM): 0.75 | Average (MTT assay reading) (A549; A549, 1 μM): 0.345 | MTT assay reading, replicate well (A549; A549, 1 μM): 0.303 and 0.302 and 0.313 and 0.359 and 0.422 and 0.316 and 0.4 | % control (A549; A549, 1 μM): 0.60 | Average (MTT assay reading) (H460; H460, 0.01 μM): 0.6664 | MTT assay reading, replicate well (H460; H460, 0.01 μM): 0.67 and 0.672 and 0.578 and 0.697 and 0.719 and 0.651 and 0.678 | % control (H460; H460, 0.01 μM): 0.57 | Average (MTT assay reading) (H460; H460, 0.1 μM): 0.3214 | MTT assay reading, replicate well (H460; H460, 0.1 μM): 0.352 and 0.354 and 0.375 and 0.234 and 0.26 and 0.303 and 0.372 | % control (H460; H460, 0.1 μM): 0.27 | Average (MTT assay reading) (H460; H460, 0.5 μM): 0.3358 | MTT assay reading, replicate well (H460; H460, 0.5 μM): 0.372 and 0.35 and 0.36 and 0.296 and 0.2577 and 0.283 and 0.432 | % control (H460; H460, 0.5 μM): 0.29 | Average (MTT assay reading) (H460; H460, 1 μM): 0.3296 | MTT assay reading, replicate well (H460; H460, 1 μM): 0.314 (2×) and 0.376 and 0.344 and 0.302 and 0.291 and 0.366 | % control (H460; H460, 1 μM): 0.28 | Average (MTT assay reading) (H1299; H1299, 0.01 μM): 0.5019 | MTT assay reading, replicate well (H1299; H1299, 0.01 μM): 0.573 and 0.553 and 0.567 and 0.483 and 0.493 and 0.424 and 0.42 | % control (H1299; H1299, 0.01 μM): 0.65 | Average (MTT assay reading) (H1299; H1299, 0.1 μM): 0.2847 | MTT assay reading, replicate well (H1299; H1299, 0.1 μM): 0.302 and 0.338 and 0.317 and 0.271 and 0.215 and 0.272 and 0.278 | % control (H1299; H1299, 0.1 μM): 0.37 | Average (MTT assay reading) (H1299; H1299, 0.5 μM): 0.3656 | MTT assay reading, replicate well (H1299; H1299, 0.5 μM): 0.275 and 0.579 and 0.324 and 0.32 and 0.398 and 0.294 and 0.369 | % control (H1299; H1299, 0.5 μM): 0.48 | Average (MTT assay reading) (H1299; H1299, 1 μM): 0.2179 | MTT assay reading, replicate well (H1299; H1299, 1 μM): 0.157 and 0.202 and 0.236 and 0.233 and 0.217 and 0.262 and 0.218 | % control (H1299; H1299, 1 μM): 0.28 | Average (MTT assay reading) (H596; H596, 0.01 μM): 1.262 | MTT assay reading, replicate well (H596; H596, 0.01 μM): 1.286 and 1.422 and 1.376 and 1.041 and 1.247 and 1.293 and 1.168 | % control (H596; H596, 0.01 μM): 0.76 | Average (MTT assay reading) (H596; H596, 0.1 μM): 0.6487 | MTT assay reading, replicate well (H596; H596, 0.1 μM): 0.677 and 0.894 and 0.729 and 0.59 and 0.476 and 0.579 and 0.596 | % control (H596; H596, 0.1 μM): 0.39 | Average (MTT assay reading) (H596; H596, 0.5 μM): 0.4131 | MTT assay reading, replicate well (H596; H596, 0.5 μM): 0.469 and 0.448 and 0.439 and 0.322 and 0.282 and 0.424 and 0.508 | % control (H596; H596, 0.5 μM): 0.25 | Average (MTT assay reading) (H596; H596, 1 μM): 0.4389 | MTT assay reading, replicate well (H596; H596, 1 μM): 0.385 and 0.377 and 0.447 and 0.585 and 0.404 and 0.429 and 0.445 | % control (H596; H596, 1 μM): 0.26

COc1cc2c(cc1OC)C1C(=O)c3ccc4c(c3OC1CO2)CC([Se]c1ccccc1)C(C)(C)O4 (stereo not drawn) [Drug 12]
Average (MTT assay reading) (A549; A549, 0.01 μM): 0.6226 | MTT assay reading, replicate well (A549; A549, 0.01 μM): 0.58 and 0.633 and 0.616 and 0.636 and 0.715 and 0.577 and 0.601 | % control (A549; A549, 0.01 μM): 1.08 | Average (MTT assay reading) (A549; A549, 0.1 μM): 0.6147 | MTT assay reading, replicate well (A549; A549, 0.1 μM): 0.604 and 0.545 and 0.597 and 0.519 and 0.606 and 0.719 and 0.713 | % control (A549; A549, 0.1 μM): 1.06 | Average (MTT assay reading) (A549; A549, 0.5 μM): 0.5669 | MTT assay reading, replicate well (A549; A549, 0.5 μM): 0.533 and 0.614 and 0.532 and 0.584 and 0.567 and 0.553 and 0.585 | % control (A549; A549, 0.5 μM): 0.98 | Average (MTT assay reading) (A549; A549, 1 μM): 0.5701 | MTT assay reading, replicate well (A549; A549, 1 μM): 0.534 and 0.536 and 0.557 and 0.571 and 0.586 (2×) and 0.621 | % control (A549; A549, 1 μM): 0.99 | Average (MTT assay reading) (H460; H460, 0.01 μM): 0.7451 | MTT assay reading, replicate well (H460; H460, 0.01 μM): 0.763 and 0.753 and 0.691 and 0.648 and 0.765 and 0.774 and 0.822 | % control (H460; H460, 0.01 μM): 0.64 | Average (MTT assay reading) (H460; H460, 0.1 μM): 0.721 | MTT assay reading, replicate well (H460; H460, 0.1 μM): 0.603 and 0.593 and 0.691 and 0.781 and 0.732 and 0.815 and 0.832 | % control (H460; H460, 0.1 μM): 0.62 | Average (MTT assay reading) (H460; H460, 0.5 μM): 0.7127 | MTT assay reading, replicate well (H460; H460, 0.5 μM): 0.621 and 0.714 and 0.653 and 0.739 and 0.77 and 0.758 and 0.734 | % control (H460; H460, 0.5 μM): 0.61 | Average (MTT assay reading) (H460; H460, 1 μM): 0.7406 | MTT assay reading, replicate well (H460; H460, 1 μM): 0.709 and 0.659 and 0.698 and 0.79 and 0.717 and 0.805 and 0.806 | % control (H460; H460, 1 μM): 0.63 | Average (MTT assay reading) (H1299; H1299, 0.01 μM): 0.5509 | MTT assay reading, replicate well (H1299; H1299, 0.01 μM): 0.513 and 0.438 and 0.626 and 0.426 and 0.609 and 0.729 and 0.515 | % control (H1299; H1299, 0.01 μM): 0.72 | Average (MTT assay reading) (H1299; H1299, 0.1 μM): 0.4999 | MTT assay reading, replicate well (H1299; H1299, 0.1 μM): 0.514 and 0.55 and 0.568 and 0.409 and 0.465 and 0.466 and 0.527 | % control (H1299; H1299, 0.1 μM): 0.65 | Average (MTT assay reading) (H1299; H1299, 0.5 μM): 0.628 | MTT assay reading, replicate well (H1299; H1299, 0.5 μM): 0.637 and 0.549 and 0.636 and 0.614 and 0.847 and 0.655 and 0.458 | % control (H1299; H1299, 0.5 μM): 0.82 | Average (MTT assay reading) (H1299; H1299, 1 μM): 0.4001 | MTT assay reading, replicate well (H1299; H1299, 1 μM): 0.434 and 0.41 and 0.413 and 0.451 and 0.378 and 0.357 and 0.358 | % control (H1299; H1299, 1 μM): 0.52 | Average (MTT assay reading) (H596; H596, 0.01 μM): 1.421 | MTT assay reading, replicate well (H596; H596, 0.01 μM): 1.468 and 1.111 and 1.465 and 1.374 and 1.701 and 1.481 and 1.344 | % control (H596; H596, 0.01 μM): 0.86 | Average (MTT assay reading) (H596; H596, 0.1 μM): 1.683 | MTT assay reading, replicate well (H596; H596, 0.1 μM): 1.911 and 1.663 and 1.92 and 1.666 and 1.398 and 1.603 and 1.623 | % control (H596; H596, 0.1 μM): 1.01 | Average (MTT assay reading) (H596; H596, 0.5 μM): 1.737 | MTT assay reading, replicate well (H596; H596, 0.5 μM): 1.686 and 1.82 and 1.177 and 1.899 and 1.872 and 2.048 and 1.655 | % control (H596; H596, 0.5 μM): 1.05 | Average (MTT assay reading) (H596; H596, 1 μM): 1.531 | MTT assay reading, replicate well (H596; H596, 1 μM): 1.143 and 1.448 and 1.604 and 1.637 and 1.497 and 1.557 and 1.828 | % control (H596; H596, 1 μM): 0.92

Source: patent publication US20060128792A1, “Deguelin as a chemopreventive agent for lung cancer” (priority 2002, published 2006)
